Converted amounts (≈) assume the structure as drawn.
What was measured:
KB (human cancer cell) = assay: Cytotoxicity assay against KB cells in vitro; assay type: cell-based; settings: NA@20 given for inactive
[1] = test system: KB-VIN (multidrug-resistant strain); assay: Cytotoxicity assay against KB-VIN cells in vitro; assay type: cell-based, human
NADPH oxidase (NOX) [2] = target: NADPH oxidase (NOX) (Mus musculus, UniProt Q61093); assay type: biochemical, murine; settings: ROS production triggered with NADPH (200 μM), 1-50 μM test drug, BV2 cell lysate; mean ± S.E.M., 3-6 experiments; read-out: IC50 (μM) in NOX activity from BV2 cell lysate
[3] = target: T1, nitric oxide synthase (NOS) (Mus musculus, UniProt P29477); assay: NOS activity: LPS-induced NO production in murine microglial cells (BV2); settings: read-out: IC50 (μM) in NOS; LPS-induced NO production in BV2 cells, 1-50 μM test drug; mean ± S.E.M.
T1 sequence (P29477 1-1144): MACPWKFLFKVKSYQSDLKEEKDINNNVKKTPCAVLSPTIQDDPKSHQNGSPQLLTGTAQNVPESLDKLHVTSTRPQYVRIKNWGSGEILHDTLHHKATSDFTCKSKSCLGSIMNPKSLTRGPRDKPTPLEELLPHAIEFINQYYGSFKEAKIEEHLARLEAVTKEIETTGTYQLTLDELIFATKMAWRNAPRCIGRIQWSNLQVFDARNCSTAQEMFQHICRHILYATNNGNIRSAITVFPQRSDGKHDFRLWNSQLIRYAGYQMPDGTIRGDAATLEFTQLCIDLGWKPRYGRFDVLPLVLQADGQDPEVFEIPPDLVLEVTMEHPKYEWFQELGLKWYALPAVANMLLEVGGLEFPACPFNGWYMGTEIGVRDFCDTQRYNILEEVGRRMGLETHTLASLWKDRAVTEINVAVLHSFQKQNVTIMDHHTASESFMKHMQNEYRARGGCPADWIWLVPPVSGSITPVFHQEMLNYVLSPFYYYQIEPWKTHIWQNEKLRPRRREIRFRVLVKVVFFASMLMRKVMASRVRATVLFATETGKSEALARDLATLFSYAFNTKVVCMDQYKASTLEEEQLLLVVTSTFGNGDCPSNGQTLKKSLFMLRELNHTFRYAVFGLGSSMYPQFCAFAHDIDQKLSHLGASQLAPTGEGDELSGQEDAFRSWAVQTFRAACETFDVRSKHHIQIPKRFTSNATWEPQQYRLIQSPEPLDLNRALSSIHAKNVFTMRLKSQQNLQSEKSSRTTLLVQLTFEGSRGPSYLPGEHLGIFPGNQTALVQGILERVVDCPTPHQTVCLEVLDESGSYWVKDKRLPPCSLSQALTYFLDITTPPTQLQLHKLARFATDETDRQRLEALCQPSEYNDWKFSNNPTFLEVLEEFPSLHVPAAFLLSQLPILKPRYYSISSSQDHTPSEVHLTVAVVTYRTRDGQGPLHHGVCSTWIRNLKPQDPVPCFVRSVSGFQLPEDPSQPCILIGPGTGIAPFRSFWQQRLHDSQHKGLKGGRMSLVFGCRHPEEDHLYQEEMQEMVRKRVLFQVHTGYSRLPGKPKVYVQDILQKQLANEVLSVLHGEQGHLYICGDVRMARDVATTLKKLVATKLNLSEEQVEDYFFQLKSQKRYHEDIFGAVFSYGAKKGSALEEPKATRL
Procedure: Microglial cell culture and measurements of mitric oxide (NO). The murine microglial cell line (BV2) was cultured, and the production of NO was measured by the methods as previously described (Wang, Y. H.; Wang, W. Y.; Chang, C. C.; Liou, K. T.; Sung, Y. J.; Liao, J. F.; Chen, C. F.; Chang, S.; Hou, Y. C.; Chou, Y. C.; Shen, Y. C. J. Biomed. Sci. 2006, 13, 127-141).

NADPH oxidase (NOX) [4] = target: NADPH oxidase (NOX) (Homo sapiens, UniProt P04839); assay type: cell-based; settings: ROS production triggered with fMLP (2 μM), 1-50 μM test drug, peripheral human neutrophils; mean ± S.E.M.; read-out: IC50 (μM) in NOX fMLP-induced NOX activation in PMN
[5] = test system: Daoy (human medulloblastoma); assay: MTT cytotoxicity assay, Daoy; assay type: cell-based; settings: Daoy cell line
Procedure: (§1) Compounds II-7-II-9, II-13, II-14, II-20, II-21, II-25-II-33, and II-36 were assayed for cytotoxic activity against Doay (human medulloblastoma), Hep2 (human laryngeal carcinoma), MCF-7 (human breast adenocarcinoma), and Hela (human cervical epitheloid carcinoma) cell lines, using a MTT assay method.

[6] = test system: Hep2 (human laryngeal carcinoma); assay: MTT cytotoxicity assay, Hep2; assay type: cell-based; settings: Hep2 cell line
Procedure: as §1

[7] = test system: MCF-7 (human breast adenocarcinoma); assay: MTT cytotoxicity assay, MCF-7; assay type: cell-based; settings: MCF-7 cell line
Procedure: as §1

[8] = test system: Hela (human cervical epitheloid carcinoma); assay: MTT cytotoxicity assay, Hela; assay type: cell-based; settings: Hela cell line
Procedure: as §1

[9] = test system: P-388 murine leukemia cells; settings: in vitro, previous studies; cited from earlier work

| Molecule | EC50 (KB (human cancer cell)) [µM] | EC50 [1] [µM] | IC50 (NADPH oxidase (NOX) [2]) [µM] | IC50 [3] [µM] | IC50 (NADPH oxidase (NOX) [4]) [µM] | ED50 (μg/mL) Daoy [5] [µg/mL] | ED50 (μg/mL) Hep2 [6] | ED50 (μg/mL) MCF-7 [7] [µg/mL] | ED50 (μg/mL) Hela [8] | cytotoxicity against P-388 murine leukemia cells [9] | EC50 (μM) KB (KB (human cancer cell)) | EC50 (μM) KB-VIN [1] |
| --- | --- | --- | --- | --- | --- | --- | --- | --- | --- | --- | --- | --- |
| C=C(CC[C@@H](C)[C@H]1CC[C@H]2C3=C(C(=O)[C@H](O)[C@]12C)[C@@]1(C)CC[C@@H](O)[C@@H](C)[C@@H]1CC3=O)C(C)C(=O)O (stereo partly drawn) [Compound I-13, zhankuic acid C] | 15.5 | 6.4 | 40.3 ± 3.5 | 16.2 ± 0.9 | – | – | – | – | – | – | – | – |
| C=C(CC[C@@H](C)[C@H]1CC[C@H]2C3=C(C(=O)C[C@]12C)[C@@]1(C)CCC(=O)[C@@H](C)[C@@H]1CC3)C(C)C(=O)O (stereo partly drawn) [Compound I-15, antcin A] | 4.9 | 10 | 45.9 ± 7.9 | 4.1 ± 0.5 | 29.2 ± 6.7 | 13.2 (≈ 29 µM) | — (ED50 > 20 μg/mL) | 13.3 (≈ 29.3 µM) | — (ED50 > 20 μg/mL) | – | – | – |
| C=C(C)C#Cc1c(OC)cc(OC)c(OC)c1C [II-9, antrocamphin A] | – | – | 50.1 ± 3.3 | 7.2 ± 1 | 15.1 ± 4.1 | 5.9 (≈ 24 µM) | 10.5 µg/mL (≈ 42.6 µM) | 3.4 (≈ 13.8 µM) | 6.9 µg/mL (≈ 28 µM) | – | – | – |
| C=C(CC[C@@H](C)[C@H]1CC[C@H]2C3=C(C(=O)C[C@]12C)[C@@]1(C)CCC(=O)[C@@H](C)[C@@H]1CC3=O)C(C)C(=O)O (stereo partly drawn) [zhankuic acid A] | – | – | – | – | – | – | – | – | – | significant cytotoxicity | – | – |
| C=C(CC[C@@H](C)[C@H]1CC[C@H]2C3=C(C(=O)[C@H](O)[C@]12C)[C@@]1(C)CC[C@@H](O)[C@@H](C)[C@@H]1CC3=O)C(C)C(=O)O (stereo partly drawn) [zhankuic acid C] | – | – | – | – | – | – | – | – | – | significant cytotoxicity | – | – |
| methyl antcinate H [Compound I-18] | – | – | 16 ± 8.1 | 2.5 | 18.1 ± 5.9 | – | – | – | – | – | NA@20 | NA@20 |
